In publication PMC10987829 (iScience, 2024):

Experiments:
H2A/H2B dimers = H2A/H2B dimers (Xenopus laevis, UniProt P02281+P06897); test: Protein thermal shift; format: binding; conditions: H2A/H2B 0.5 mg/mL, ligand 1.2:1 molar ratio, 50 mM Bis-Tris propane pH 7.4, 150 mM NaCl, 10X SYPRO Orange; apo H2A/H2B Tm 46.1 ± 0.2°C; three replicates
H3/H4 = conditions: cited from earlier work
[1] = target: Npm2 A2mockglu4 peptide (…), 'pseudo-glutamylated' (Xenopus laevis); test: other fluorescence titration
mononucleosomes = test: Disassembly of premade mononucleosomes; format: biochemical; conditions: salt-dialysis mononucleosomes, increasing chaperone

DYDEEGEEADDEEGEEEADEDHDPDFDPK [Nap1 A3 (350–382)]
change of H2A/H2B melting temperature (Tm) (H2A/H2B dimers): 6.7 °C

Npm2 Tail (119–146): Npm2 C-terminal Tail domain peptide, residues 119–146, purified as previously described (AMEEDYSWAEEEDEGEEEEEEEEDPESP)
fold lower affinity for H3/H4 than for H2A/H2B (H3/H4): 5 fold

Xenopus laevis H2A/H2B heterodimer (from UniProt P06897;P02281) (complex)
Kd [1]: 300 nM

B1: Nap1glu: TTLL4-treated (glutamylated) full-length Nap1 (protein)
chain: MANIDNKGQTELDQQDMEDVEDVEEEETGEDANSKARQLTAQMMQNPQVLAALQERLDDLVGTPTGYIESLPKVVKRRVNALKNLQVKCAQIEAKFYEEVHELERKYAALYQPLFDKRSDIINATYEPTEEECEWKVEEEDISGDLKEKAKLEEEKKDEEKEDPKGIPEFWLTVFKNVDLLSDMLQEHDEPILKHLKDIKVKFSDAGQPMSFTLEFYFEPNEFFTNEVLTKTYKMRSEPDESDPFSFDGPEIMGCTGCLIDWKKGKNVTLKTIKKKQKHKGRGTVRTVTKTVPNDSFFNFFTPPEVPENGELDDDAEAILTADFEIGHFLRERIIPRSVLYFTGEAIEDDDDDYDEEGEEADDEEGEEEADEDNDPDYEPKV
disassembly of premade mononucleosomes (mononucleosomes): neither Nap1 nor Nap1glu were able to disassemble premade mononucleosomes
